Results taken from patent US5212072A, “Polypeptides complementary to peptides or proteins having an amino acid sequence or nucleotide coding sequence at least partially known and methods of design therefor” (Board of Regents, The University of Texas System, priority 1991, dated 1993).
Values joined by “and” are separate entries in the source; they are usually repeats but may differ in a detail not shown here. Equal entries are not always repeated. Where no end group is shown, it is not given here.

Assays:
ACTH (1-24) = target: T1, ACTH (1-24) (Homo sapiens, UniProt P01189); test: ELISA binding of ACTH (1-24) to HTCA-coated microtiter wells
T1 construct: 10 ug synthetic ACTH (1-24) in PBS-Tween buffer; purchased Organon (West Orange, N.J.); host or cells: chemical synthesis
Procedure: From 1 to 25 micrograms (ug) per well of HTCA or insulin in carbonate-bicarbonate coating buffer were added to 96 well round bottom microtiter plates and incubated at 4° C. for 8 hr. The plates were then washed with phosphate buffered saline PBS)-Tween 20 (Sigma Chemical Co., St. Louis, Mo.) buffer.
To the insulin-coated wells and to some of the HTCA-coated wells was added 10 ug synthetic ACTH (1-24) in PBS-Tween buffer. Control wells (HTCA alone) contained only PBS-Tween. The plates were incubated at room temperature for 2 hr. and then washed three times with PBS-Tween buffer. […] Following 3 washes with PBS-Tween buffer, alkaline phosphatase-conjugated goat anti-rabbit Ig G (Miles Laboratories, Elkharbt, Ind.) in PBS-Tween buffer (1:300 dilution was added. After inculation at room temperature for 1 hr, the plates were washed three times with PBS-Tween buffer and each well was treated with 200 microliters (ul) of p-nitrophenyl phosphate (1 mg/ml in carbonate-bicarbonate buffer) for 11/2 hr. at room temperature. The enzymatic reaction was then stopped by the addition of 3N NaOH (50 ul) to each well and the optical absorbance of p-nitrophenol the alkaline phosphatase product, was measured at 405 nm. The ACTH bound to the coated microtiter wells was measured by this enzyme-linked immunoabsorbent assay (EL1SA). […]

[1] = tested on: LHRH-stimulated release of LH from pituitary cells; test: Reverse hemolytic plaque assay, LHRH-stimulated LH release from pituitary cells; assay type: cell-based, rat; settings: Exp. 1 (Pre); 5x10^-10 M LHRH + peptide 10^-4 M
Procedure: A reverse hemolytic plaque assay (Smith, et al.), Method in Enzymology, 124, p.
Plaques were analyzed by determining plaque area with an image analysis (Bioguant or Image Technology Corp. Model 300) of ^125×-500 × microscopic enlargements.

I^125 ACTH (1-39) = target: T2, I^125 ACTH (1-39) (Homo sapiens, UniProt P01189); test: 125I-ACTH binding to peptide-coated microtiter wells; settings: for Bound CPM 125I-ACTH: coated wells; for Bound CPM 125I-ACTH + excess ACTH: excess unlabelled ACTH
T2 construct: I^125 ACTH (1-39) (New England Nuclear Boston, Mass.); purchased New England Nuclear, Boston, Mass
T2 sequence (P01189 138-176 limits assumed): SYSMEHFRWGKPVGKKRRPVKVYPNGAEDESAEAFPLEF
Procedure: Utilizing techniques described in Example 1B, polyvinyl microtiter wells were coated with 3'-5' HTCA from a 1 mM solution thereof or with BSA.
The BSA and 3'-5' HTCA coated wells were washed and then treated with one of three solutions of I^125 ACTH (1-39) (New England Nuclear Boston, Mass.) having different concentrations. After a forty five minute incubation period the solution was removed and the microtiter wells extensively washed. The microtiter wells were separated and assayed for iodine^125 content in a Beckman Gamma 5500 gamma counter. Bound ^125 I-ACTH was measured in duplicate at three concentrations in the absence and presence of excess unlabelled ACTH.
Utilizing the cRNA sequence and HTCA sequence shown in Table 8 of Example 1A, a series of peptides having a carboxy-terminal portion of the HTCA amino acid were synthesized. A pentamer (5-mer) contained the amino acid sequence: H^2 N-Phe-His-Gly-Val-Arg-COOH. A decamer (10-mer) contained the amino acid sequence: H^2 N-[…]COOH. A twenty membered peptide (20-mer) contained the amino acids sequence: H2 N-[…] Val-ArQ-COOH. Each of these peptides was used to coat microtiter wells and the coated wells tested for the ability to hind ^125 I-ACTH as described in Example 1C.
A 24-mer HTCA variant (R-HTCA) with reversed amino acid sequence directionality (amino-terminal and carboxy-terminal ends being reversed) was synthesized and had the following sequence: H2 N-[…] Arg-His-Leu-His-Val-Gly-COOH. The well-coating and ^125 I-ACTH binding procedures were performed as described in Example 1-C and the resultant data shown in Table 11.

angiotensin II receptors = test: Binding of [125I] angiotensin II to isolated hepatic receptor; design: species or system Rabbit; settings: concentration inhibiting binding of radiolabelled angiotensin II by 50%; 0.25 nM [125I] angiotensin II; 60 minutes 20 C
Procedure: Inhibition of angiotensin II binding to angiotensin II receptors by complementary peptides was tested with measurement through the use of radioactive angiotensin II. Rabbit livers were homogenized, and were centrifuged in order to isolate particles sedimenting between 1,000 and 100,000 xg. Binding activity was solublized with 1% digitonin, followed by ammonium sulfate fractionation between 49 and 65% satuation followed by DEAE- cellulose chromatography at pH 7.5 using a linear gradient between 0.0 and 0.3 M KCl. The partially purified, solubilized receptor preparation bound 17 pmoles of angiotensin II per […] protein when analyzed by Scatchard analysis, indicating a purity of approximately 0.1%.
The standard assay for binding of angiotensin II to the receptor is as follows: The complete system (150 ul) contains 30 mM Tris-HCl, pH 7.5, 2.5 mM K2 EDTA, 0.2 mM PCMS, 0.25 nM [^125 I] angiotensin II ca. 100,000 cpm), 100 ug BSA, 0.25% (V/V) Brij 99 and 30 ug of partially purified receptor. […] Tubes are vortexed and then allowed to stand 10 minutes at 4° C., after which they are centrifuged and their supernatants, containing protein-bound angiotensin II, are counted.
The complete system under these conditions regularly yields about 10,000 cpm of bound radioactivity. […] Residual binding of radioactivity in this control was 35-45%. […]

| Bound CPM 125I-ACTH (I^125 ACTH (1-39); 1:3 dilution 125I-ACTH) | Bound CPM 125I-ACTH + excess ACTH (I^125 ACTH (1-39); 1:3 dilution 125I-ACTH) | Bound CPM 125I-ACTH + excess ACTH (I^125 ACTH (1-39); 1:9 dilution 125I-ACTH) | Bound CPM 125I-ACTH + excess ACTH (I^125 ACTH (1-39); conc 125I-ACTH) | Bound CPM 125I-ACTH (I^125 ACTH (1-39); 1:9 dilution 125I-ACTH) | Bound CPM 125I-ACTH (I^125 ACTH (1-39); conc 125I-ACTH) | Compound | other results |
| --- | --- | --- | --- | --- | --- | --- | --- |
| – | – | – | – | – | – | insulin: control coating protein [reference compound] | binding of synthetic ACTH (1-24) to coated wells (ACTH (1-24); 10 ug ACTH (1-24), coating 1 to 25 ug/well): nor does ACTH bind |
| – | – | – | – | – | – | C[C@H](N)C(=O)NCC(=O)N[C@H]1CSSC[C@@H](C(=O)O)NC(=O)[C@H](CO)NC(=O)[C@H]([C@@H](C)O)NC(=O)[C@H](Cc2ccccc2)NC(=O)[C@H]([C@@H](C)O)NC(=O)[C@H](CCCCN)NC(=O)[C@H](Cc2c[nH]c3ccccc23)NC(=O)[C@H](Cc2ccccc2)NC(=O)[C@H](Cc2ccccc2)NC(=O)[C@H](CC(N)=O)NC(=O)[C@H](CCCCN)NC1=O [Somatostatin] | plaque area, percentage response to control (5x10^-10 M LHRH) [1]: 103% |
| 590 CPM | 287 CPM and 299 CPM | 191 CPM and 183 CPM | 616 CPM and 615 CPM | – | – | RMRYLVKATPFGHPFFAAGHFHMG [3'-5' HTCA] | binding of 125I-ACTH to coated peptide (in words) (I^125 ACTH (1-39)): binds |
| 3391 CPM and 2931 CPM | 132 CPM and 143 CPM | 62 CPM and 58 CPM | 345 CPM and 350 CPM | 872 CPM and 1062 CPM | 8,927 CPM and 9,072 CPM | APAEVFHGVR [10-mer] | – |
| – | – | – | – | – | – | GVHLHRAPLLAHRLAPAEVFHGVR [HTCA] | specific part of ACTH-HTCA binding (ACTH (1-24); wells coated 3.7 nmol/well HTCA, ELISA): about 90% |
| – | – | – | – | – | – | Ac-KGVYIHAL-NH2 [CCA-AII (Ac, Am), Ac--LYS--GLY--VAL--TYR--ILE--HIS--ALA--LEU--Am] | ID50 (angiotensin II receptors): 3,100 nM |
| 3,514 CPM and 3,655 CPM | 97 CPM and 95 CPM | 56 CPM and 52 CPM | 233 CPM and 245 CPM | 995 CPM and 993 CPM | 10,252 CPM and 11,388 CPM | FHGVR [5-mer, H^2 N-Phe-His-Gly-Val-Arg-COOH] | – |
| 2,997 CPM and 3,209 CPM | 140 CPM and 121 CPM | 65 CPM and 69 CPM | 303 CPM and 325 CPM | 1,101 CPM and 1,161 CPM | 10,392 CPM and 10,709 CPM | RVGHFVEAPALRHALLPARHLHVG [R-HTCA] | binding of 125I-ACTH to coated peptide (in words) (I^125 ACTH (1-39)): significant affinity for ACTH |
| – | – | – | – | – | – | GLUGLU-VAL-LYS-GLY-VAL-TYR-ILE-HIS-ALA-LEU (EEVKGVYIHAL; printed: GLUGLU-VAL-LYS-GLY-VAL-TYR-ILE-HIS-ALA-LEU) [CCA-AI] | ID50 (angiotensin II receptors): 490 nM |
| 613 CPM and 625 CPM | 113 CPM and 83 CPM | 39 CPM and 48 CPM | 229 CPM and 213 CPM | 238 CPM and 215 CPM | 1978 CPM and 1768 CPM | HRAPLLAHRLAPAEVFHGVR [20-mer] | – |
